Measurements from patent US20030027819A1, “Beta-sheet mimetics and methods relating to the use thereof” (Molecumetics Ltd., priority 1996, published 2003).

These compounds were tested against thrombin (Bos taurus, UniProt P00735) (assay: Thrombin inhibition by solid phase compounds of Tables 11-15). Details: mixtures of diastereomers; read-out: Ki as thrombin inhibitors (mark at Cpd. No.).
Assay type: biochemical
Parameters: 100 μl of 10 μM thrombin solution
Protocol: Following extensive washing with DMF, the resin was treated with the acid fluoride of N-Fmoc-4-aminomethylbenzoic acid, or (81), or (86) and Hunigs' base in DMF until the Kaiser test was negative. Alternatively, the Fmoc-protected thiazole-(75) or imidazole-based (77) linkers were coupled to the resin using BOP, HOBt and DIEA. In some instances Fmoc-Leu or another amino acid was attached to the resin prior to the thiazole-(75) or imidazole-based (77) linkers via the same methodology. […] Following washing with DMF a dienoic acid was coupled to the resin-bound linkers using PyBOP, HOBt and Hunigs' base in DMF until the result of a Kaiser test was negative. The cycloaddition was performed by pretreatment of a solution of a pyrazolidinedione (not shown) or urazole in DMF with a solution of [bis(trifluoroacetoxy)iodo]benzene in DMF. […] The resin was then washed with DMF and CH2Cl2. Oxidation to the ketoamide was effected by treatment of the resin with a solution of Dess-Martin periodinane in DMSO for 60 min. […] The supernatant was collected and the resin was washed with additional TFA. The combined filtrates were concentrated in vacuo. The residue was precipitated with diethyl ether and the ether was decanted. The resulting solid was reconstituted in 1:1 CH3CN:H2O and lyophilized. […] The compounds were assayed for inhibition of coagulation enzymes as mixtures of diastereomers.

Ki, < 10 nM:
CC(C)CC1C=CC(C(=O)NC(CCCCN)C(=O)C(=O)NCCc2ccc(C(N)=O)cc2)n2c(=O)n(CC(C)c3ccccc3)c(=O)n21 (centres unmarked) [Structure 111], CC1=CC(C(=O)NC(CCCNC(=N)N)C(=O)c2nc3ccccc3s2)n2c(=O)n(Cc3ccccc3)c(=O)n2C1 (centres unmarked) [Structure 224], CC(C)CC1C=CC(C(=O)NC(CCCCN)C(=O)C(=O)NCCc2ccc(C(N)=O)cc2)n2c(=O)n(Cc3cccs3)c(=O)n21 (centres unmarked) [Structure 116], CC(C)CC1C=CC(C(=O)NC(CCCCN)C(=O)C(=O)NCCc2ccc(C(N)=O)cc2)n2c(=O)n(CCc3cccs3)c(=O)n21 (centres unmarked) [Structure 115], CC1=CC(C(=O)NCC2CCC(C(=N)N)CC2)n2c(=O)n(CC(c3ccccc3)c3ccccc3)c(=O)n2C1 (centres unmarked) [Structure 221-18], CC(C)(C)CC1C=CC(C(=O)NC(CCCCN)C(=O)C(=O)NCCc2ccc(C(N)=O)cc2)n2c(=O)n(CCc3ccccc3)c(=O)n21 (centres unmarked) [Structure 142], CC(CC1C=CC(C(=O)NC(CCCCN)C(=O)C(=O)NCCc2ccc(C(N)=O)cc2)n2c(=O)n(-c3ccc(C(C)(C)C)cc3)c(=O)n21)CC(C)(C)C (centres unmarked) [Structure 128], CC1C=CC(C(=O)NC(CCCCN)C(=O)C(=O)NCc2ccc(C(N)=O)cc2)n2c(=O)n(CCc3cccs3)c(=O)n21 (centres unmarked) [Structure 146], CC1=CC(C(=O)NC(CCCCN)C(=O)C(=O)NCCc2ccc(C(N)=O)cc2)n2c(=O)n(CC(F)(F)F)c(=O)n2C1 (centres unmarked) [Structure 145], CC1=CC(C(=O)NC(CCCCN)C(=O)C(=O)NCCc2ccc(C(N)=O)cc2)n2c(=O)n(Cc3ccc(C(F)(F)F)c(F)c3)c(=O)n2C1 (centres unmarked) [Structure 137], CC(CC1C=CC(C(=O)NC(CCCCN)C(=O)C(=O)NCCc2ccc(C(N)=O)cc2)n2c(=O)n(Cc3ccccc3)c(=O)n21)CC(C)(C)C (centres unmarked) [Structure 132], CC(C)(C)CC1C=CC(C(=O)NC(CCCCN)C(=O)C(=O)NCCc2ccc(C(N)=O)cc2)n2c(=O)n(Cc3cc(F)ccc3F)c(=O)n21 (centres unmarked) [Structure 139], CC1=CC(C(=O)NC(CCCCN)C(=O)C(=O)NCCc2ccc(C(N)=O)cc2)n2c(=O)n(Cc3cccc4ccccc34)c(=O)n2C1c1ccccc1 (centres unmarked) [Structure 125], CC1=CC(C(=O)NC(CCCCN)C(=O)C(=O)NCCc2ccc(C(N)=O)cc2)n2c(=O)n(C(c3ccccc3)c3ccccc3)c(=O)n2C1 (centres unmarked) [Structure 138], CC(C)CC1C=CC(C(=O)NC(CCCCN)C(=O)C(=O)NCCc2ccc(C(N)=O)cc2)n2c(=O)n(C(c3ccccc3)c3ccccc3)c(=O)n21 (centres unmarked) [Structure 118], CC(C)CCn1c(=O)n2n(c1=O)C(C(=O)NC(CCCCN)C(=O)C(=O)NCCc1ccc(C(N)=O)cc1)C=CC2CC(C)CC(C)(C)C (centres unmarked) [Structure 126], CC1=CC(C(=O)NC(CCCCN)C(=O)C(=O)NCc2ccc(C(=O)NCCc3ccccc3)cc2)n2c(=O)n(Cc3cc(F)ccc3F)c(=O)n2C1 (centres unmarked) [Structure 102], CC(C)CC1C=CC(C(=O)NC(CCCCN)C(=O)C(=O)NCCc2ccc(C(N)=O)cc2)n2c(=O)n(Cc3cccc4ccccc34)c(=O)n21 (centres unmarked) [Structure 117], CC1=CC(C(=O)NC(CCCCN)C(=O)C(=O)NCc2ccc(C(=O)NCCc3ccccc3)cc2)n2c(=O)n(Cc3cc(F)ccc3F)c(=O)n2C1 (centres unmarked) [Structure 223], CC(C)CC1C=CC(C(=O)NC(CCCCN)C(=O)C(=O)NCc2ccc(C(N)=O)cc2)n2c(=O)n(Cc3cccc4ccccc34)c(=O)n21 (centres unmarked) [Structure 109], CC(C)(C)CC1C=CC(C(=O)NC(CCCCN)C(=O)C(=O)NCCc2ccc(C(N)=O)cc2)n2c(=O)n(Cc3cc(F)ccc3F)c(=O)n21 (centres unmarked) [Structure 225], CC1=CC(C(=O)NC(CCCCN)C(=O)C(=O)NCCc2ccc(C(N)=O)cc2)n2c(=O)n(CC(C)c3ccccc3)c(=O)n2C1c1ccccc1 (centres unmarked) [Structure 123], CC(CC1C=CC(C(=O)NC(CCCCN)C(=O)C(=O)NCCc2ccc(C(N)=O)cc2)n2c(=O)n(Cc3ccc(C(F)(F)F)c(F)c3)c(=O)n21)CC(C)(C)C (centres unmarked) [Structure 134], NCCCCC(NC(=O)C1C=C2CCCCC2n2c(=O)n(Cc3cc(F)ccc3F)c(=O)n21)C(=O)C(=O)NCCc1ccc(C(N)=O)cc1 (centres unmarked) [Structure 101], CC(CC1C=CC(C(=O)NC(CCCCN)C(=O)C(=O)NCCc2ccc(C(N)=O)cc2)n2c(=O)n(Cc3ccc(C(F)(F)F)cc3)c(=O)n21)CC(C)(C)C (centres unmarked) [Structure 133], CC1=CC(C(=O)NC(CCCCN)C(=O)C(=O)NCCc2ccc(C(N)=O)cc2)n2c(=O)n(Cc3cc(F)ccc3F)c(=O)n2C1 (centres unmarked) [Structure 222], CC(CC1C=CC(C(=O)NC(CCCCN)C(=O)C(=O)NCCc2ccc(C(N)=O)cc2)n2c(=O)n(C(Cc3ccccc3)c3ccccc3)c(=O)n21)CC(C)(C)C (centres unmarked) [Structure 129], COc1ccccc1-n1c(=O)n2n(c1=O)C(C(=O)NC(CCCCN)C(=O)C(=O)NCCc1ccc(C(N)=O)cc1)C=CC2CC(C)C (centres unmarked) [Structure 114], CCC=CCCC1C=CC(C(=O)NC(CCCCN)C(=O)C(=O)NCCc2ccc(C(N)=O)cc2)n2c(=O)n(C(Cc3ccccc3)c3ccccc3)c(=O)n21 (mixture of isomers) [Structure 105], CC(C)(C)CC1C=CC(C(=O)NC(CCCCN)C(=O)C(=O)NCCc2ccc(C(N)=O)cc2)n2c(=O)n(Cc3ccccc3)c(=O)n21 (centres unmarked) [Structure 140], CC1=CC(C(=O)NC(CCCNC(=N)N)C(=O)c2nc3ccccc3s2)n2c(=O)n(CC(c3ccccc3)c3ccccc3)c(=O)n2C1 (centres unmarked) [Structure 215], COc1ccccc1-n1c(=O)n2n(c1=O)C(C(=O)NC(CCCCN)C(=O)C(=O)NCCc1ccc(C(N)=O)cc1)C=CC2CC(C)CC(C)(C)C (centres unmarked) [Structure 127], CC1=CC(C(=O)NC(CCCCN)C(=O)C(=O)NCCc2ccc(C(N)=O)cc2)N2C(=O)C(CC(C)C)(CC(C)C)C(=O)N2C1 (centres unmarked) [Structure 188], CC1=CC(C(=O)NC(CCCCN)C(=O)C(=O)NCCc2ccc(C(N)=O)cc2)n2c(=O)n(C(Cc3ccccc3)c3ccccc3)c(=O)n2C1 (centres unmarked) [Structure 136], CC(C)(C)CC1C=CC(C(=O)NC(CCCCN)C(=O)C(=O)NCCc2ccc(C(N)=O)cc2)n2c(=O)n(C(c3ccccc3)c3ccccc3)c(=O)n21 (centres unmarked) [Structure 141], CCC=CCCC1C=CC(C(=O)NC(CCCCN)C(=O)C(=O)NCCc2ccc(C(N)=O)cc2)n2c(=O)n(Cc3cc(F)ccc3F)c(=O)n21 (mixture of isomers) [Structure 103], CC(C)CC1C=CC(C(=O)NC(CCCCN)C(=O)C(=O)NCCc2ccc(C(N)=O)cc2)n2c(=O)n(Cc3ccccc3)c(=O)n21 (centres unmarked) [Structure 112], CC(CC1C=CC(C(=O)NC(CCCCN)C(=O)C(=O)NCCc2ccc(C(N)=O)cc2)n2c(=O)n(C(c3ccccc3)c3ccccc3)c(=O)n21)CC(C)(C)C (centres unmarked) [Structure 131], CC1=CC(C(=O)NC(CCCCN)C(=O)C(=O)NCCc2ccc(C(N)=O)cc2)N2C(=O)C(Cc3ccccc3)(Cc3ccccc3)C(=O)N2C1 (centres unmarked) [Structure 187], CC1=CC(C(=O)NCC2CCC(N)CC2)n2c(=O)n(CCS(=O)(=O)c3ccccc3)c(=O)n2C1 (centres unmarked) [Structure 221-5], CC1=CC(C(=O)NC(CCCCN)C(=O)C(=O)NCCc2ccc(C(N)=O)cc2)n2c(=O)n(Cc3cc(F)ccc3F)c(=O)n2C1 (centres unmarked) [Structure 100], CC(C)CC1C=CC(C(=O)NC(CCCCN)C(=O)C(=O)NCCc2ccc(C(N)=O)cc2)n2c(=O)n(Cc3cc(F)ccc3F)c(=O)n21 (centres unmarked) [Structure 113], CCC=CCCC1C=CC(C(=O)NC(CCCCN)C(=O)C(=O)NCCc2ccc(C(N)=O)cc2)n2c(=O)n(Cc3ccc(C(F)(F)F)c(F)c3)c(=O)n21 (mixture of isomers) [Structure 104], CC1=CC(C(=O)NC(CCCNC(=N)N)C(=O)c2nc3ccccc3s2)n2c(=O)n(Cc3ccccc3)c(=O)n2C1 (centres unmarked) [Structure 211], NCCCCC(NC(=O)C1C=C2CCCCC2n2c(=O)n(CCc3cccs3)c(=O)n21)C(=O)C(=O)NCCc1ccc(C(N)=O)cc1 (centres unmarked) [Structure 119], NCCCCC(NC(=O)C1C=C2CCCCC2n2c(=O)n(Cc3cc(F)ccc3F)c(=O)n21)C(=O)C(=O)NCCCc1ccc(C(N)=O)cc1 (centres unmarked) [Structure 226], CC(CC1C=CC(C(=O)NC(CCCCN)C(=O)C(=O)NCCc2ccc(C(N)=O)cc2)n2c(=O)n(CC(c3ccccc3)c3ccccc3)c(=O)n21)CC(C)(C)C (centres unmarked) [Structure 130]
